Read-outs that look alike come from different tables or passages of the source.
What was measured:
[1] = system: Immunologically Stimulated Human Basophils; experiment: Inhibition of histamine release from immunologically stimulated human basophils; assay type: cell-based; details: 1 h; human basophils challenged with anti-IgE or antigen, 60 minutes at 37° C.; linear regression; active if ED50 ≤48 μM; read-out: ED50 (concentration which causes a 50% inhibition of histamine release)
Description: The novel compounds of this invention have been tested by the procedure of Lichtenstein, L. M. and Osler, A. G., J. Exp. Med., 120, 507-530 (1964), which evaluates the ability of compounds to inhibit mediator (histamine) release from immunologically stimulated human basophils.
Dissolve 140.3 g of sodium chloride, 7.45 g of potassium chloride and 74.5 g of Trizma-Tris Pre-Set, Reagent Grade, pH 7.6, at 25° C. (Sigma Chemical Co.) in sufficient water to give a final volume of 2 liters.
(Sigma Chemical Co.) (30 mg/ml)
Made to 0.75M and 0.5M respectively, with calcium chloride dihydrate and magnesium chloride hexahydrate.
A 10 ml portion of 10X Tris Buffer and 1.0 ml of human albumin are diluted to 100 ml with water.
A 10 ml portion of 10X Tris Buffer, 1.0 ml of human albumin, 0.8 ml of calcium stock and 0.2 ml of magnesium stock are diluted to 100 ml with water.
Behring Diagnostics (Generally used at 10 μg protein/ml final concentration).
Strength 1:100 (w:v) allergenic extract, Hollister-Stier Labs. Generally this is diluted 1:1000 to 1:10,000 (considering the vial as stock).
Intradermal solutions or intramuscular preparations for hyposensitization, Hollister-Stier Labs. The final concentration used is on the order of 1 PNU/ml.
Eighty milliliters of blood is withdrawn from subjects with known histamine release to anti-Ige, rageweed antigen or other specific alergen, using four 20 ml heparainized tubes. This 80 ml of blood is mixed with 20 ml of saline containing 0.6 g of dextrose and 1.2 g of dextran. The blood is allowed to sediment at room temperature in two 50 ml polycarbonate centrifuge tubes until a sharp interface develops between the red cells and plasma (60-90 minutes). The plasma (top) layer from each tube is with-drawn by pipet and transferred to respective 50 ml polycarbonate tubes. The plasma is centrifuged for 8 minutes at 100×G at […]. The supernatant is carefully poured off as completely as possible and the cell button is resuspended in 2-3 ml of Tris-A buffer using a silconized Pasteur pipet. The resuspension is accomplished by drawing the liquid gently in an out of the pipet, with the tip below the liquid, until and even suspension of cells is obtained. Sufficient Tris-A buffer is then added to bring the volume in the tube to about 45 ml and the tube is centrifuged at 110×G for 8 minutes at 4° C. The supernatant is poured off and the cell button is resuspended and centrifuged as described above. The supernatant is poured off and the cell button suspended in 2-3 ml of Tris-ACM buffer to make the final volume sufficient to allow addition to the reaction tubes.
Reaction tubes containing anti-IgE or antigens, either alone or with test compound in a total volume of 0.2 ml are prepared and placed in a 37° C. bath. […]

Neutrophil Lipoxygenase = target: T1, Neutrophil Lipoxygenase (Cavia porcellus, UniProt A0A286X958); experiment: Inhibition of neutrophil lipoxygenase (release and biosynthesis of LTB4 and 5-HETE) in guinea pig peritoneal neutrophils; assay type: cell-based; details: 10 μg/ml, 100 μM arachidonic acid and 20 μM A23187, the lower the percentage, the more active
T1 construct: endogenous in cells; host or cells: guinea pig peritoneal neutrophils
T1 sequence (A0A286X958 1-674): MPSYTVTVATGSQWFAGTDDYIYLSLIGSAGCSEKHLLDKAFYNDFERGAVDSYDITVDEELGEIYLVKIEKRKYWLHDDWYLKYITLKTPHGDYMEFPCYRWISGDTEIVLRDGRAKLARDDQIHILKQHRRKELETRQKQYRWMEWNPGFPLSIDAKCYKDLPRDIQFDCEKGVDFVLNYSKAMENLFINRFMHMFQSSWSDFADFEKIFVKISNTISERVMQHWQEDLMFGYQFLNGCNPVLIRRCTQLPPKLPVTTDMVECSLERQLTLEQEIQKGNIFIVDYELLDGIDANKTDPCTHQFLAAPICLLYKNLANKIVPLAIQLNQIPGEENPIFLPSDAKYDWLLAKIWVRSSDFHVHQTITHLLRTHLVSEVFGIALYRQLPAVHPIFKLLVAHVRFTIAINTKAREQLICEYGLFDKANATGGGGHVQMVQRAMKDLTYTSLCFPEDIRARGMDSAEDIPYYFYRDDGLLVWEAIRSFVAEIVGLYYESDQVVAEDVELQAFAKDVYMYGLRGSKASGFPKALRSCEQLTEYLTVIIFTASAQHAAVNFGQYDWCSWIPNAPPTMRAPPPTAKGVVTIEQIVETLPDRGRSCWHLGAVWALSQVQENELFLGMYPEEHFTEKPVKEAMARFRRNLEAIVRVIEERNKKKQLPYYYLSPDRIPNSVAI
Description: The ability of these compounds to inhibit lipoxygenase activity in terms of the suppression of the release and biosynthesis of leukotriene B4 (LTB4) and 5-hydroxyeicosatetraenoic acid (5-HETE) was measured as follows.
In this assay 3×10^7 peritoneal neutrophils derived from guinea pigs were incubated at 37° C. in Dulbeccos buffer containing 50 mM tris buffer (pH 7.4). Five minutes before the addition of 100 μM arachidonic acid and 20 μM calcium ionophore (A23187), control vehicle or the test compounds were added to the neutrophils at a concentration of 10 μg/ml.
Three minutes after the addition of arachidonic acid and calcium ionophore the total lipid was partitioned into chloroform after adjusting the pH to 3 with citric acid and the addition of equal parts of methanol and chloro-form.
The 5-HETE and LTB4 were resolved by HPLC using a 5 μM, 4×25 cm octadecyl silica solumn (IBM Instruments) with 70-80% methanol in water adjusted to pH 3.0 with acetic acid. As the mobile phase was pumped at 1.0 ml/minute, LTB4 and 5-HETE were detected by absorbance at 270 and 236 nm, respectively.
LTB4 and 5-HETE were quantitated by comparison with the control and results were expressed as a percent of control.

IC50 [1] | remaining activity at 10 µg/mL (Neutrophil Lipoxygenase; read-out: 5-HETE, % of Control) | remaining activity at 10 µg/mL (Neutrophil Lipoxygenase; read-out: LTB4, % of Control) | SMILES
6.8 µM | – | – | O=C1C=CC(=O)c2[nH]c(-c3ccc(Cl)cc3)nc21 [2-(4-Chlorophenyl)-1H-benzimidazole-4,7-dione]
– | 77% | 87% | COc1ccc(OC)c2[nH]c(-c3ccc(Cl)cc3)nc12 [2-(4-Chlorophenyl)-4,7-dimethoxy-1H-benzimidazole]
– | 78.2% | 8% | COc1ccc(OC)c2[nH]c(-c3ccccc3)nc12 [4,7-Dimethoxy-2-phenyl-1H-benzimidazole]
9.7 µM | – | – | Oc1ccc(O)c2[nH]c(-c3ccc(Cl)cc3)nc12 [2-(4-Chlorophenyl)-1H-benzimidazole-4,7-diol]
– | 32.1% | 33.9% | Oc1ccc(O)c2[nH]c(-c3ccccc3)nc12 [2-Phenyl-1 --H--benzimidazole-4,7-diol, 2-Phenyl-1H-benzimidazole-4,7-diol]
1 µM | 40.5% | 39.3% | CCOC(=O)N1CCN(C2=C(Cl)C(=O)c3nsnc3C2=O)CC1 [4-(6-Chloro-4,7-dihydro-4,7-dioxo-2,1,3-benzothiadiazol-5-yl)-1-piperazinecarboxylic acid, ethyl ester]
– | 64% | 90.8% | O=CN1CCN(C2=C(Cl)C(=O)c3nsnc3C2=O)CC1 [4-(6-Chloro-4,7-dihydro-4,7-dioxo-2,1,3-benzothiadiazol-5-yl)-1-piperazinecarboxaldehyde]
9.1 µM | 15.2% | 14.6% | O=C1C(Cl)=C(N2CCN(c3cccc(C(F)(F)F)c3)CC2)C(=O)c2nsnc21 [5-Chloro-6-6[4-[3-(trifluoromethyl)phenyl]-1-piperazinyl]-2,1,3-benzothiadiazole-4,7-dione]
– | 20.8% | 25.8% | O=C1C(Cl)=C(N2CCN(c3nc4ccccc4o3)CC2)C(=O)c2nsnc21 [5-[4-(2-Benzoxazolyl)-1-piperazinyl]-6-chloro-2,1,3-benzothiadiazole-4,7-dione]

From patent publication US4808586A, “Substituted benzimidazoles and benzothidiazoles having anti-asthmatic and/or anti-inflammatory activities” (American Cyanamid Company, priority 1987, dated 1989)
